From patent publication US20130324489A1, “NEW ANTIFUNGAL COMPOSITIONS” (DSM IP ASSETS B.V., priority 2011, published 2013)

How the values were obtained:
[1] = test system: Botrytis cinerea; test: In vitro antifungal activity, 96-well microtiter plates; format: cell-based; conditions: 1.25 ppm natamycin, 25° C.
Description: The following compositions were tested: […] After incubation of the microtiter plates at 25° C., the in vitro antifungal activity (%) of the individual active ingredients was assessed by calculating the reduction in mould growth observed in the presence of the active ingredient in comparison to the mould growth observed in the absence of the active ingredient. The expected antifungal activity (E in %) of the active ingredient combination was calculated according to the Colby equation (Colby, 1967): […] wherein X and Y are the observed antifungal activities (in %) of the individual active ingredients X and Y, respectively.

[2] = test system: Penicillium italicum; test: as above; format: cell-based; conditions: 0.63 ppm natamycin, 5.0 ppm vinclozolin, 10 ppm procymidone, alone or natamycin + one of them, 25° C., day 3
Description: Subsequently, 100 μl of a Botrytis cinerea suspension prepared in PCB medium was used to inoculated each well with 2.5×10^3 spores/ml.
After incubation of the microtiter plates at 25° C., the in vitro antifungal activity (%) of the individual active ingredients was assessed by calculating the reduction in mould growth observed in the presence of the active ingredient in comparison to the mould growth observed in the absence of the active ingredient. The expected antifungal activity (E in %) of the active ingredient combination was calculated according to the Colby equation (Colby, 1967): […]
wherein X and Y are the observed antifungal activities (in %) of the individual active ingredients X and Y, respectively. If the observed antifungal activity (O in %) of the combination exceeds the expected antifungal activity (E in %) of the combination and the resulting synergy factor O/E is thus >1.0, the combined application of the active ingredients leads to a synergistic antifungal effect.
The experiment was conducted as described in Example 10, except for the fact that the following compositions were tested:
Furthermore, Penicillium italicum was used for inoculation. The antifungal activity (in %) of the individual and combined active ingredients was determined according to the method described in Example 10.

| Structure (SMILES) | Observed antifungal activity O (%) ([1]; 3.0 ppm iprodione or both, day 5) | Observed antifungal activity O (%) ([1]; 8.0 ppm iprodione or both, day 12) | Observed antifungal activity O (%) ([1]; 1.5 ppm vinclozolin, 1.25 ppm procymidone, alone or natamycin + one of them, day 3) | Observed antifungal activity O (%) ([1]; 1.5 ppm vinclozolin, 1.25 ppm procymidone, alone or natamycin + one of them, day 6) | Observed antifungal activity O (%) ([1]; 7.0 ppm vinclozolin, 2.0 ppm procymidone, alone or natamycin + one of them, day 10) | Observed antifungal activity O (%) [2] [%] |
| --- | --- | --- | --- | --- | --- | --- |
| CC(C)NC(=O)N1CC(=O)N(c2cc(Cl)cc(Cl)c2)C1=O [Iprodione, iprodione] | 50 | 50 | – | – | – | – |
| C=CC1(C)OC(=O)N(c2cc(Cl)cc(Cl)c2)C1=O (stereo not drawn) [Vinclozolin, vinclozolin] | – | – | 0 | 0 | 0 | 0 |
